These are literature values, as cited in patent US20210145844A1, “COMBINATION THERAPY FOR NICOTINE ADDICTION” (Amygdala Neurosciences, Inc., priority 2018, published 2021).

The target in one data set is T1, hMAO-A (Homo sapiens, UniProt P21397).
T1 sequence (P21397 1-527): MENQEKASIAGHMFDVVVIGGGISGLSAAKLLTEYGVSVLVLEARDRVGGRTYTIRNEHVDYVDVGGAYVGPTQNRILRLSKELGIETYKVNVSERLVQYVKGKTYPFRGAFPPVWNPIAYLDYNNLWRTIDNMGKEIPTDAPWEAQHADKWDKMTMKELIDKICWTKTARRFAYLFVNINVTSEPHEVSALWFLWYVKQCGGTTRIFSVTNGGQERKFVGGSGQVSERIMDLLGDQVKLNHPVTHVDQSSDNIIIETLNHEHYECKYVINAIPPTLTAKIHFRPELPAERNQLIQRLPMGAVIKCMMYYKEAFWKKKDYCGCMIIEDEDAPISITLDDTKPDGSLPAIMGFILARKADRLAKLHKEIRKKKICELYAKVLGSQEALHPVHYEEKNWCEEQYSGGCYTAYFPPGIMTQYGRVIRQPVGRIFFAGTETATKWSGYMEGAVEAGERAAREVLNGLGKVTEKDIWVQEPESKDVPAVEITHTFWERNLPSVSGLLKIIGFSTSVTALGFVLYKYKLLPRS
The following applies: read-out: IC50 hMAO-A.

The target of another data set is T2, hMAO-B (Homo sapiens, UniProt P27338).
T2 sequence (P27338 1-520): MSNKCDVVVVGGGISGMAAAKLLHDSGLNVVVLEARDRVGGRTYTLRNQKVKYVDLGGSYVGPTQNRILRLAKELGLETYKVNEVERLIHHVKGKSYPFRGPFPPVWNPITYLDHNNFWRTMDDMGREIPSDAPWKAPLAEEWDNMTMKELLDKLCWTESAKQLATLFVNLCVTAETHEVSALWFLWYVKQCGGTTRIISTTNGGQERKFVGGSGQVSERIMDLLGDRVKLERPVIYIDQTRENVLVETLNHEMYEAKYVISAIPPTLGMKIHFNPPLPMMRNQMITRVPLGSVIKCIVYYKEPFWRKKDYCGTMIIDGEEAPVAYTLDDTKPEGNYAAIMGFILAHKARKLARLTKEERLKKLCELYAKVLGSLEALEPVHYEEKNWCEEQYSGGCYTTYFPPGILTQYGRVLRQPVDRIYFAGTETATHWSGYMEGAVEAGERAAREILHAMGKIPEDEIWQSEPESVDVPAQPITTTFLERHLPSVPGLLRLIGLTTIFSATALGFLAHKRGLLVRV
Particulars: read-out: IC50 hMAO-B.

For data set [1] the following is noted: in vivo.
Another data set has as its target T3, human ALDH-2 enzyme (Homo sapiens, UniProt P05091).
T3 sequence (P05091 18-517): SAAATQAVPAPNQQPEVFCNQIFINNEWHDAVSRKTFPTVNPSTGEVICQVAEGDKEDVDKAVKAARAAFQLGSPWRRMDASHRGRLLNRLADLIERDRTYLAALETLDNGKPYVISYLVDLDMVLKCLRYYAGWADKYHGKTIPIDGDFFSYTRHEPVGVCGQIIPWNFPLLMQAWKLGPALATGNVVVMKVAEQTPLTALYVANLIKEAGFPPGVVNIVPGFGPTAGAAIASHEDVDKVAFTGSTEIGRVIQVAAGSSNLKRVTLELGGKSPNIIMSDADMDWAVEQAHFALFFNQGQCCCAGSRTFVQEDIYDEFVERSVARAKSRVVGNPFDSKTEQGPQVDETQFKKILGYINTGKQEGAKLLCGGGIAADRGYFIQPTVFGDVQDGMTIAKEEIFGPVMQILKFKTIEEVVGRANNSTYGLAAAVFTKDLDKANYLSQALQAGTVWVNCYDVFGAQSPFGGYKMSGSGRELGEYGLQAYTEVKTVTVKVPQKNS
The following applies: read-out: IC50 ALDH-2.

What is called IC50 is the midpoint of a concentration-inhibition curve. `COCCOc1cc(Cl)c(C(=O)NCc2ccc(-c3cc[nH]c(=O)c3)cc2)c(Cl)c1` [(3), 2,6-dichloro-4-(2-methoxyethoxy)-N-(4-(2-oxo-1,2-dihydropyridin-4-yl)benzyl)benzamide]: the IC50 at hMAO-A and at hMAO-B was over 130 µM throughout.
For `O=C(NCc1ccc(-c2cc[nH]c(=O)c2)cc1)c1cccc(F)c1Cl` [(4), 2-chloro-3-fluoro-N-(4-(2-oxo-1,2-dihydropyridin-4-yl)benzyl)benzamide], the IC50 at hMAO-A and on hMAO-B was over 130 µM in each case.
For the compound `Cc1cccc(Cl)c1C(=O)NCc1ccc(-c2cc[nH]c(=O)c2)cc1` [(5), 2-chloro-6-methyl-N-(4-(2-oxo-1,2-dihydropyridin-4-yl)benzyl)benzamide], the IC50 on hMAO-A and at hMAO-B was over 130 µM in each case.
`Cc1cccc(C)c1C(=O)NCc1ccc(-c2cc[nH]c(=O)c2)cc1` [(6), 2,6-dimethyl-N-(4-(2-oxo-1,2-dihydropyridin-4-yl)benzyl)benzamide]: the IC50 on hMAO-A and at hMAO-B was over 130 µM each time.
Take `Cc1cc(-c2ccc(CNC(=O)c3c(Cl)cccc3Cl)cc2)cc(=O)[nH]1` [(7), 2,6-dichloro-N-[4-(6-methyl-2-oxo-1,2-dihydro-pyridin-4-yl)-benzyl]-benzamide]: the IC50 on hMAO-A and on hMAO-B was over 130 µM in each case.
With `O=C(NCc1ccc(-c2cc[nH]c(=O)c2)cc1)c1c(F)ccc(F)c1Cl` [(8), 2-chloro-3,6-difluoro-N-(4-(2-oxo-1,2-dihydropyridin-4-yl)benzyl)benzamide], the IC50 on hMAO-A and at hMAO-B was over 130 µM throughout.
Take `Cc1cc(CNC(=O)c2c(Cl)cccc2Cl)ccc1-c1cc[nH]c(=O)c1` [(9), 2,6-dichloro-N-(3-methyl-4-(2-oxo-1,2-dihydropyridin-4-yl)benzyl)benzamide]: the IC50 on hMAO-A and at hMAO-B was over 130 µM throughout.
With `Cn1ccc(-c2ccc(CNC(=O)c3c(Cl)cccc3Cl)cc2)cc1=O` [(10), 2,6-dichloro-N-(4-(1-methyl-2-oxo-1,2-dihydropyridin-4-yl)benzyl)benzamide], the IC50 at hMAO-A and at hMAO-B was over 130 µM throughout.
On to `O=C(NCc1ccc(-c2cc[nH]c(=O)c2)cc1)c1c(F)cccc1F` [(11), 2,6-difluoro-N-(4-(2-oxo-1,2-dihydropyridin-4-yl)benzyl)benzamide], for which the IC50 on hMAO-A and at hMAO-B was over 130 µM each time.
Consider `O=C(NCc1ccc(-c2cc[nH]c(=O)c2)cc1)c1c(F)cccc1Cl` [(12), 2-chloro-6-fluoro-N-(4-(2-oxo-1,2-dihydropyridin-4-yl)benzyl)benzamide], for which the IC50 on hMAO-A and on hMAO-B was over 130 µM in each case.
In the case of `O=C(NCc1ccc(-c2cc[nH]c(=O)c2)cc1F)c1c(Cl)cccc1Cl` [(13), 2,6-dichloro-N-(2-fluoro-4-(2-oxo-1,2-dihydropyridin-4-yl)benzyl)benzamide], the IC50 on hMAO-A and on hMAO-B was over 130 µM in each case.
As to `O=C(NCc1ccc(-c2cc(=O)[nH]cc2F)cc1)c1c(Cl)cccc1Cl` [(14), 2,6-dichloro-N-(4-(5-fluoro-2-oxo-1,2-dihydropyridin-4-yl)benzyl)benzamide], the IC50 on hMAO-A and at hMAO-B was over 130 µM throughout.
In the case of `O=C(NCc1ccc(-c2cc[nH]c(=O)c2)cc1)c1c(Cl)cccc1Cl` [Compound (1), 2,6-dichloro-N-[4-(2-oxo-1,2-dihydro-pyridin-4-yl)-benzyl]-benzamide], in data set [1], the “intake of cocaine and alcohol” value is “reduce intake of cocaine and alcohol”. Further, the IC50 at hMAO-A and on hMAO-B was over 130 µM each time. Besides, the self-administration of nicotine result in the data set on rats is given as “suppress self-administration of nicotine in rats”.
On to `O=C(NCc1ccc(-c2ccn(COP(=O)(O)O)c(=O)c2)cc1)c1c(Cl)cccc1Cl` [Compound (2), phosphoric acid mono-(4-{4-[(2,6-dichloro-benzoylamino)-methyl]-phenyl}-2-oxo-2H-pyridin-1-ylmethyl) ester], for which the “in vivo metabolism of prodrug” value is on record as “undergoes in vivo cleavage of the phosphoric acid group to yield compound (1)”. The IC50 on human ALDH-2 enzyme is over 10 µM. The IC50 at hMAO-A is over 130 µM. The half-maximal inhibitory concentration (IC50) on hMAO-B is over 130 µM.
On to `O=C(O)C(O)C(O)C(=O)O.c1cnc2cc3c(cc2n1)[C@@H]1CNC[C@H]3C1` [varenicline, 7,8,9,10-tetrahydro-6,10-methano-6H-pyrazino[2,3-h][3]benzazepine], for which, in the data set on patients (estimated), the “varenicline discontinuation due to gastrointestinal side-effects” value was 2%-8%. Moreover, the “incidence of nausea at larger doses” value in the data set with patients (larger doses, placebo 10%) was 30%. The “mild nausea, share of patients” value in the data set with patients (most common side effect, smoking cessation use) was ~30 % of patients. Also, the “incidence of nausea at smaller doses” value with patients (smaller doses, placebo 11%) is on record as 16%.
